Laboratory results taken from ChEMBL document CHEMBL4265944, “Novel amide derivatives of 1,3-dimethyl-2,6-dioxopurin-7-yl-alkylcarboxylic acids as multifunctional TRPA1 antagonists and PDE4/7 inhibitors: A new approach for the treatment of pain” (Eur J Med Chem, 2018).
Active and inactive are the calls of the source. The rule behind the calls is not given here.

How the values were obtained:
[1] = target: 3',5'-cyclic-AMP phosphodiesterase 4B (Homo sapiens, UniProt Q07343); experiment: Inhibition of recombinant human PDE4B using cAMP as substrate after 10 mins by PDE-Glo Phosphodiesterase Assay
[2] = target: High affinity 3',5'-cyclic-AMP phosphodiesterase 7A (Homo sapiens, UniProt Q13946); experiment: Inhibition of recombinant human PDE7A using cAMP as substrate after 10 mins by PDE-Glo Phosphodiesterase Assay
[3] = target: Transient receptor potential cation channel subfamily A member 1 (Homo sapiens) (UniProt O75762); experiment: Antagonist activity at human TRPA1 expressed in HEK293 cells assessed as decrease in flufenamic acid-evoked increase in intracellular calcium level at 100 uM measured for 180 secs with 1 sec interval by Fluo4-AM dye-based fluorescence assay relative to control; format: cell-based
[4] = system: Rattus norvegicus; experiment: Anti-inflammatory activity in Wistar rat assessed as inhibition of carrageenan-induced paw edema at 20 mg/kg, ip measured at 2 hrs post dose relative to control; format: functional
[5] = system: Rattus norvegicus; experiment: Anti-inflammatory activity in Wistar rat assessed as inhibition of carrageenan-induced paw edema at 20 mg/kg, ip measured at 3 hrs post dose relative to control; format: functional
[6] = system: Rattus norvegicus; experiment: Anti-inflammatory activity in Wistar rat assessed as inhibition of carrageenan-induced paw edema at 20 mg/kg, ip measured at 1 hr post dose relative to control; format: functional
[7] = system: Mus musculus; experiment: Antiinflammatory activity in formalin-induced nociception ip dosed Swiss CD-1 mouse model assessed as time spent on licking or biting formalin injected right hind paw […] measured during phase 2; format: functional; conditions: Swiss CD-1, ip
[8] = system: Mus musculus; experiment: Potency index, ratio of ED50 for HC-030031 to test compound ED50 for formalin-induced nociception ip dosed Swiss CD-1 mouse model assessed as time spent on licking or biting formalin injected right hind paw […] measured during phase 2; format: functional
[9] = system: Mus musculus; experiment: Antiinflammatory activity in formalin-induced nociception Swiss CD-1 mouse model assessed as time spent on licking or biting formalin injected right hind paw during neurogenic phase at 5 mg/kg, ip measured during phase 1 (reference value: 33 +/- 1.45 sec); format: functional
[10] = system: Mus musculus; experiment: Antiinflammatory activity in formalin-induced nociception Swiss CD-1 mouse model assessed as time spent on licking or biting formalin injected right hind paw […] at 5 mg/kg, ip measured during phase 2 (reference value: 83.63 +/- 12.98 sec); format: functional
[11] = Plasma concentration in Wistar rat model of LPS-induced inflammation at 50 mg/kg, ip measured at 1.5 hrs post dose by HPLC method; format: ADME, organism-based
[12] = system: Rattus norvegicus; experiment: Antiinflammatory activity in Wistar rat assessed as inhibition of LPS-induced TNF-alpha level at 50 mg/kg, ip measured at 1 to 2 hrs post dose by ELISA relative to control; format: functional
[13] = system: Rattus norvegicus; experiment: Antiallodynic activity in Wistar rat assessed as reduction in oxaliplatin-induced neuropathic pain in early phase by measuring paw withdrawal force at 10 mg/kg, ip measured after 60 mins by Von Frey test; format: functional, organism-based
[14] = system: Rattus norvegicus; experiment: Antiallodynic activity in Wistar rat assessed as reduction in oxaliplatin-induced neuropathic pain in late phase by measuring paw withdrawal force at 10 mg/kg, ip measured after 60 mins by Von Frey test; format: functional, organism-based
[15] = system: Mus musculus; experiment: Antiinflammatory activity in formalin-induced nociception Swiss CD-1 mouse model assessed as time spent on licking or biting formalin injected right hind paw during […] phase at 2.5 mg/kg, ip measured during phase 2 (reference value: 83.63 +/- 12.98 sec); format: functional
[16] = system: Mus musculus; experiment: Antiinflammatory activity in formalin-induced nociception Swiss CD-1 mouse model assessed as time spent on licking or biting formalin injected right hind paw during […] phase at 10 mg/kg, ip measured during phase 2 (reference value: 83.63 +/- 12.98 sec); format: functional
[17] = system: Mus musculus; experiment: Antiinflammatory activity in formalin-induced nociception Swiss CD-1 mouse model assessed as time spent on licking or biting formalin injected right hind paw during neurogenic phase at 2.5 mg/kg, ip measured during phase 1 (reference value: 33 +/- 1.45 sec); format: functional
[18] = target: Transient receptor potential cation channel subfamily A member 1 (Homo sapiens) (UniProt O75762); experiment: Antagonist activity at human TRPA1 expressed in HEK293 cells assessed as decrease in flufenamic acid-evoked increase in intracellular calcium level at 10 uM measured for 180 secs with 1 sec interval by Fluo4-AM dye-based fluorescence assay relative to control; format: cell-based
[19] = system: Mus musculus; experiment: Antiinflammatory activity in formalin-induced nociception Swiss CD-1 mouse model assessed as time spent on licking or biting formalin injected right hind paw during neurogenic phase at 10 mg/kg, ip measured during phase 1 (reference value: 33 +/- 1.45 sec); format: functional
[20] = Plasma concentration in Wistar rat model of LPS-induced inflammation at 50 mg/kg, ip measured at 2 hrs post dose by HPLC method; format: ADME, organism-based
[21] = Plasma concentration in Wistar rat model of LPS-induced inflammation at 50 mg/kg, ip measured at 1 hr post dose by HPLC method; format: ADME, organism-based
[22] = target: Transient receptor potential cation channel subfamily A member 1 (Homo sapiens) (UniProt O75762); experiment: Antagonist activity at human TRPA1 expressed in HEK293 cells assessed as decrease in flufenamic acid-evoked increase in intracellular calcium level at 1 uM measured for 180 secs with 1 sec interval by Fluo4-AM dye-based fluorescence assay relative to control; format: cell-based
[23] = system: Rattus norvegicus; experiment: Antiallodynic activity in Wistar rat assessed as reduction in oxaliplatin-induced neuropathic pain in late phase by measuring paw withdrawal latency time at 1 mg/kg, ip measured after 60 secs by cold plate test; format: functional, organism-based

Chain of High affinity 3',5'-cyclic-AMP phosphodiesterase 7A (Q13946 whole entry): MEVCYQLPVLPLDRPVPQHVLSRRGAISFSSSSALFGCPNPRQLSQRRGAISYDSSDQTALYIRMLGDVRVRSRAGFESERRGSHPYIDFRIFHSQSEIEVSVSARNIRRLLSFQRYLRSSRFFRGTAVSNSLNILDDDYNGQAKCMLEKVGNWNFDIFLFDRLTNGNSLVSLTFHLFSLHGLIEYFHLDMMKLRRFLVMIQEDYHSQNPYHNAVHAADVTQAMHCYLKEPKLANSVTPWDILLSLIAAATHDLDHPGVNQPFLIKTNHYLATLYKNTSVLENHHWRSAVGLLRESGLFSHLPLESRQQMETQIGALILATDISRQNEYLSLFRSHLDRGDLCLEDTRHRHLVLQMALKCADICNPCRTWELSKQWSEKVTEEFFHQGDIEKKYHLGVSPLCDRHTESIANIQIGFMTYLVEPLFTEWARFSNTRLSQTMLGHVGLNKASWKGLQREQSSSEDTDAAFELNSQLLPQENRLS
Chain of Transient receptor potential cation channel subfamily A member 1 (Homo sapiens) (O75762 whole entry): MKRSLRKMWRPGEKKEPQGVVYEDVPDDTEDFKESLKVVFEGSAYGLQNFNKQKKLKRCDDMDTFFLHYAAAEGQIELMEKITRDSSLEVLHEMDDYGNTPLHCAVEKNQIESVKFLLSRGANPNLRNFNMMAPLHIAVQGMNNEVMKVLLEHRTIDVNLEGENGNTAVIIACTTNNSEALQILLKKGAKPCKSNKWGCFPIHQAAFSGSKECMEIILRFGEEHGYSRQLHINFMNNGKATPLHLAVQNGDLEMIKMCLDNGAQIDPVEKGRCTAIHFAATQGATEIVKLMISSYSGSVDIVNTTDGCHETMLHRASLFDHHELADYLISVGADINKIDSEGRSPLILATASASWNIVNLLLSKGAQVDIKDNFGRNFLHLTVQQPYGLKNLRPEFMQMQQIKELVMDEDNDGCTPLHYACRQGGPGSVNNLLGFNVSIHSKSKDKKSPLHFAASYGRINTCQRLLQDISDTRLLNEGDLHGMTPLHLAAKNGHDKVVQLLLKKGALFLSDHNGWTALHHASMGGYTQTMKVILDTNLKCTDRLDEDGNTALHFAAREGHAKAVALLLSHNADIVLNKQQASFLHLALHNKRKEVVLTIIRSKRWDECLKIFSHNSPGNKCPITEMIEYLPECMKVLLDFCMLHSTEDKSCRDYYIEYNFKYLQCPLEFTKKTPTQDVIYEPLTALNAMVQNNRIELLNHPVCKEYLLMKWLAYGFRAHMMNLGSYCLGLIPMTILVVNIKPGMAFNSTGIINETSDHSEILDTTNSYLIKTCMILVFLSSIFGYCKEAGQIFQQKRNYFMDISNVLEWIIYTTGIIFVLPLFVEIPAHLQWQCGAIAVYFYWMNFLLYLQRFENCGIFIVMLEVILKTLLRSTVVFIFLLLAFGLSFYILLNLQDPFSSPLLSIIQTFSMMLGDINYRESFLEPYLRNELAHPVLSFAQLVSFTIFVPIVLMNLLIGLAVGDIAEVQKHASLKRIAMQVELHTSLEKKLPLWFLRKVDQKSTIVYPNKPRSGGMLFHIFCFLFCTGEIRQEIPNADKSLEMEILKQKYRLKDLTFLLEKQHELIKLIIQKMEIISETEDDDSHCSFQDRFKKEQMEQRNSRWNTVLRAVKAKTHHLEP
Chain of 3',5'-cyclic-AMP phosphodiesterase 4B (Q07343 whole entry): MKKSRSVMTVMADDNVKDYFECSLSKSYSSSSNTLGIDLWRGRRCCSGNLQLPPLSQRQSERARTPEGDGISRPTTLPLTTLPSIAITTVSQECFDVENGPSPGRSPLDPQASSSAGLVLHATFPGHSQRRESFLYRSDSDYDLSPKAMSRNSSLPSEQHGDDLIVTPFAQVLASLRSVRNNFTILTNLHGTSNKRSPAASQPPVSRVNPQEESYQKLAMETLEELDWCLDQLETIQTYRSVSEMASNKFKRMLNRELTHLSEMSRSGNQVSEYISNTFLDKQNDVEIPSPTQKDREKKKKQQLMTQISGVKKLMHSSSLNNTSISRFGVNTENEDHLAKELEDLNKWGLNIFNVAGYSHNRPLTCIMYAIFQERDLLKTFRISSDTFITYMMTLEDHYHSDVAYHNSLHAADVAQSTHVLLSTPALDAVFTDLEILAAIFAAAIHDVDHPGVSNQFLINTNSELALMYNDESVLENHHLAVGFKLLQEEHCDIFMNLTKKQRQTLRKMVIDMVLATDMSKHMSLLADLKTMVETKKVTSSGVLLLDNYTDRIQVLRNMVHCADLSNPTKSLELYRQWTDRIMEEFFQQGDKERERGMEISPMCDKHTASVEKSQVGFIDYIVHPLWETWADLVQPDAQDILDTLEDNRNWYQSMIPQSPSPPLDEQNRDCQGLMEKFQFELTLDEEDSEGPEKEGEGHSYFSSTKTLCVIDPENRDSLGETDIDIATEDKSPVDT

SMILES	IC50 [1]	IC50 [2]	inhibition [3]	other results
CCOc1nc2c(c(=O)n(C)c(=O)n2C)n1CC(=O)Nc1ccc(C(C)C)cc1	> 200 µM	> 200 µM	20%	
CCCOc1nc2c(c(=O)n(C)c(=O)n2C)n1CCCC(=O)Nc1ccc(C(C)CC)cc1 (stereo not given)	16.8 µM	9.06 µM	5%	
CCCOc1nc2c(c(=O)n(C)c(=O)n2C)n1CCCC(=O)Nc1ccc(C(C)C)cc1	17.8 µM	37.6 µM	11%	
COc1nc2c(c(=O)n(C)c(=O)n2C)n1CCCC(=O)Nc1ccc(C(C)C)cc1	> 200 µM	> 200 µM	18%	
CC(C(=O)O)c1cccc(C(=O)c2ccccc2)c1 (stereo not given) [KETOPROFEN]				inhibition in vivo at 20 mg/kg [4]: 54.2%; inhibition in vivo at 20 mg/kg [5]: 66%; inhibition in vivo at 20 mg/kg [6]: 23.3%
CCOc1nc2c(c(=O)n(C)c(=O)n2C)n1CC(=O)Nc1ccc(C(C)(C)C)cc1	> 200 µM	> 200 µM	59%	ED50 [7]: 2.57 mg/kg; Ratio ED50 [8]: 10 - 13; Time [9]: 30.83 s; Time [10]: 16.33 s; concentration at 1.5 h [11]: 2590 nM; inhibition [12]: inactive; Activity [13]: Active; Activity [14]: Active; Time [15]: 46 s; Time [16]: 9.67 s; Time [17]: 32 s; inhibition [18]: 47%; Time [19]: 32.17 s; concentration at 2 h [20]: 2250 nM; concentration at 1 h [21]: 3750 nM; inhibition [22]: 10%; inhibition in vivo at 20 mg/kg [4]: 54.3%; inhibition in vivo at 20 mg/kg [5]: 50.1%; Activity [23]: Active; inhibition in vivo at 20 mg/kg [6]: 60.5%
CCCOc1nc2c(c(=O)n(C)c(=O)n2C)n1CCCC(=O)Nc1cc(C(C)(C)C)ccc1O	14.7 µM	41.1 µM	38%	inhibition [18]: 1%; inhibition [22]: 3%

More lines, main results first:

IC50 [1]	IC50 [2]	inhibition [3]	SMILES	other results
> 200 µM	> 200 µM	7%	CCOc1nc2c(c(=O)n(C)c(=O)n2C)n1CC(=O)NCc1ccccc1Cl	
> 200 µM	> 200 µM	3%	COc1nc2c(c(=O)n(C)c(=O)n2C)n1CC(=O)NCc1ccccc1Cl	
> 200 µM	> 200 µM	15%	COc1nc2c(c(=O)n(C)c(=O)n2C)n1CCCC(=O)Nc1ccc(Cl)cc1	
> 200 µM	> 200 µM	7%	CCOc1nc2c(c(=O)n(C)c(=O)n2C)n1CC(=O)Nc1ccc(Cl)cc1	
